Assay results: patent US5428020A, “Cysteine (NPYS)-containing peptides and use thereof for inhibiting platelet aggregation” (Matsueda; Rei, priority 1994, dated 1995)
* marks the point of attachment. Npys = O=[N+]([O-])c1cccnc1S*

Assays:
[1] = test system: calpain; experiment: Calpain inhibition, fluorogenic substrate succinyl-Leu-Tyr-amino-4-methylcumarin; type: biochemical; settings: 90 mM calpain; 1 mM substrate; 25° C.; pH 7.5; 5 mM CaCl2; read-out: Calpain Inhibitory Potency IC50
Experimental: 77, 1565 (1986). A calpain preparation (5~10 μl) was placed on a floating filter membrane (Marusyk et al., Anal. Biochem. 105, 403 (1980)) (Millipore type VMWP) over a buffer containing 50 mM Tris/HCl, pH 7.5 and 2.5 mM EDTA for 45-60 minutes, carefully removed and used for the following inhibition study. Aliquots (25 μl) of the enzyme (calpain) and buffer or synthetic peptide were added to a cuvette at 25° C. containing 1 mM succinyl-Leu-Tyr-amino-4-methylcumarin as the substrate in a buffer consisting of 60 mM Tris/HCl, pH 7.5, 2.5% DMSO and 5 mM CaCl2. The rate of substrate hydrolysis was continuously recorded on a Perkin-Elmer LS-5 fluorescence spectrophotometer connected to a R100 chart recorder. […] The IC50 was calculated from the dose-dependent curve for each inhibitor. The IC50 corresponds to that concentration of inhibitory peptide that produced 50% inhibition of calpain activity. In all cases, […] was utilized.

[2] = test system: human platelets; experiment: Inhibition of agonist-induced aggregation of washed human platelets (aggregometer); type: cell-based; design: key to Inhibition of platelet aggregation, PMA / Inhibition of platelet aggregation, Thrombin / Inhibition of platelet aggregation, Plasmin / Inhibition of platelet aggregation, ADP / Inhibition of platelet aggregation, Collagen / Inhibition of platelet aggregation, U46619 / Inhibition of platelet aggregation, A23187: "+" indicates inhibition of platelet aggregation; "-" indicates the absence of inhibition of platelet aggregation; "partial" indicates a partial inhibition of platelet aggregation; settings: for Inhibition of platelet aggregation, A23187: agonist A23187 2.5 uM; for Inhibition of platelet aggregation, A23187 / Inhibition of platelet aggregation, ADP / Inhibition of platelet aggregation, PMA / Inhibition of platelet aggregation, U46619 / Inhibition of platelet aggregation, Collagen / Inhibition of platelet aggregation, Plasmin / Inhibition of platelet aggregation, Thrombin: inhibitor peptide 0.8 nm, 37° C.; for Inhibition of platelet aggregation, ADP: agonist ADP 20 uM; for Inhibition of platelet aggregation, PMA: agonist PMA 0.016 uM; for Inhibition of platelet aggregation, U46619: agonist U46619 1 uM; for Inhibition of platelet aggregation, Collagen: agonist collagen 4 ug/ml; for Inhibition of platelet aggregation, Plasmin: agonist plasmin 0.025 uM; for Inhibition of platelet aggregation, Thrombin: agonist thrombin 0.02 uM
Experimental: Platelet-rich plasma was prepared by differential centrifugation (120×g, 30 min, 23° C.) of fresh whole human blood drawn into acid/citrate/dextrose (citric acid 0.079 M, sodium citrate, 0.085 M and dextrose 0.180 M) in a ratio of 1 ml of anticoagulant solution per 9 ml of blood. The platelets were washed and their suspensions prepared by a modification of the method of Mustard, et al., Brit. J. Haemat. 22, 193-204 (1972). The modifications included incubation of platelet-rich plasma with prostaglandin E1, hirudin and apyrase and two successive washes of the platelets with Tyrode-albumin buffer (without Ca^++) containing hirudin and apyrase, and apyrase alone. Platelet aggregation in the presence of each agonist and inhibitor peptide (0.8 nm) was performed at 37° C. under constant stirring (1100 rpm) conditions in a chronolog (Lumi) aggregometer. The total volume of the incubation mixture in the sample cuvette was 500 μl and the platelet concentration was adjusted to 5×10^8 /ml. The reference cuvette contained the suspension buffer. Platelet aggregation was initiated by the addition of the agonist to the sample cuvette. The data is indicated in the following table wherein "+" indicates inhibition of platelet aggregation, "-" indicates the absence of inhibition of platelet aggregation, and "partial" indicates a partial inhibition of platelet aggregation.

[3] = biological target: T1, papain (Carica papaya, UniProt P00784); settings: Teno et al., Int. J. Peptide Protein Res. 30, 93-98 (1987); cited from earlier work
T1 sequence (P00784 134-345): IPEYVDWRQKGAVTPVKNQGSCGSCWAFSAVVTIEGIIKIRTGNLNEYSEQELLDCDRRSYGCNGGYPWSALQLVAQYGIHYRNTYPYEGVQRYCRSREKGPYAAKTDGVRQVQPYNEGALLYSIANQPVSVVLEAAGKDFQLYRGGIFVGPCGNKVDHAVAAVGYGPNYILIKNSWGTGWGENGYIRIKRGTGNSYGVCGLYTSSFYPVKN

[4] = test system: platelets; experiment: Platelet cAMP levels; type: cell-based, human
[5] = biological target: T2, thrombin (Homo sapiens, UniProt P00734); experiment: Fibrinogenolytic activity of thrombin; type: biochemical
[6] = biological target: plasmin (Homo sapiens, UniProt P00747); experiment: Amidolytic activity of plasmin; type: biochemical
Sequence of plasmin (P00747 581-810 limits assumed, species assumed): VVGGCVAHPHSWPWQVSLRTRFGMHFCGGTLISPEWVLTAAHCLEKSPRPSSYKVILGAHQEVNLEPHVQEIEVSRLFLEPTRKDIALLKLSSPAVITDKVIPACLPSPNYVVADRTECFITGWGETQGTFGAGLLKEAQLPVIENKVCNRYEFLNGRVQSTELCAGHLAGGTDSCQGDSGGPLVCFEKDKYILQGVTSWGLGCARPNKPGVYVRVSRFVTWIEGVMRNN
Sequence of plasmin (P00747 97-580 partner limits assumed, species assumed): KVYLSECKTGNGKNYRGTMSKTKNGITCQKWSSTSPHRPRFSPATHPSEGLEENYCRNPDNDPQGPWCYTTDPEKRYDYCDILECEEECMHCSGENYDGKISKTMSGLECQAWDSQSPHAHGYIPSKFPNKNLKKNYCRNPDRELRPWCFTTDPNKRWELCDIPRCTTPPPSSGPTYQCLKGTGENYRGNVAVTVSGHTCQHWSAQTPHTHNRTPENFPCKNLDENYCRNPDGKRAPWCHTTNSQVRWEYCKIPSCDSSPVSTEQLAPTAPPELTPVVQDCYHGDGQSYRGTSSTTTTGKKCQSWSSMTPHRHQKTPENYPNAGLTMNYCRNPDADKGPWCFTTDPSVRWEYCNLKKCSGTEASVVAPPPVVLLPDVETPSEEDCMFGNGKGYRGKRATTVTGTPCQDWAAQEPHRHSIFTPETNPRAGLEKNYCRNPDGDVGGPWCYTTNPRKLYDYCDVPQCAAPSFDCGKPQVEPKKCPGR

[7] = biological target: T2, thrombin; experiment: Amidolytic activity of thrombin; type: biochemical
[8] = test system: platelets; experiment: Platelet shape change induced by thrombin and plasmin; type: cell-based, human
[9] = test system: aggregen; experiment: Thrombin- and plasmin-induced cleavage of labeled aggregen in intact radiolabeled platelets; type: cell-based, human

Substance | IC50 [1] [µM] | Inhibition of platelet aggregation, A23187 [2] | Inhibition of platelet aggregation, ADP [2] | Inhibition of platelet aggregation, PMA [2] | Inhibition of platelet aggregation, U46619 [2] | Inhibition of platelet aggregation, Collagen [2] | Inhibition of platelet aggregation, Plasmin [2] | Inhibition of platelet aggregation, Thrombin [2] | activity in inhibiting the thiol protease papain [3] | platelet-cAMP levels [4] | inhibition of fibrinogenolytic activity of thrombin [5] | inhibition of amidolytic activity of plasmin [6] | inhibition of amidolytic activity of thrombin [7] | effect on platelet shape change introduced by thrombin and plasmin [8] | aggregation induced by any of the other agonists tested ([2]; agonists other than thrombin and plasmin) | thrombin- and plasmin induced cleavage of [^3 H]-5'-p-fluorosulfonylbenzoyl adenosine-labeled aggregen [9]
TFA.H-Ala-Gln-Val-Val-CYs (NpyS)-GlY-NH2 (H-AQVV-{Cys(NpyS)-Gly-NH2}; also: TFA salt) [Example 4] | 16 | partial | + | + | + | + | + | + |  |  |  |  |  |  |  | 
Gln-Val-Val-Ala-Gly (QVVAG; printed: Gln-Val-Val-Ala-Gly) [QVAAG, pentapeptide of kininogen D2 and D3 repeats] |  |  |  |  |  |  |  |  | weak activity |  |  |  |  |  |  | 
TFA.H-Arg-Gln-Val-Val-Cys(NPYS)-GlY-NH2 (H-RQVVC(Npys)G-NH2; also: TFA salt) [Example 3] | 55 | partial | + | + | + | + | + | + |  |  |  |  |  |  |  | 
TFA.H-Phe-Gln-Leu-Val-Cys(NpyS)-Gly-NH2 (H-FQLVC(Npys)G-NH2; also: TFA salt) [Example 2] | 5.6 | partial | partial | partial | partial | partial | + | + |  |  |  |  |  |  |  | 
TFA.H-Gln-Val-Val-Cys(NpyS)-Gly-NH2 (H-QVVC(Npys)G-NH2; also: TFA salt) [Example 5] | 36 | partial | + | + | + | + | + | + |  |  |  |  |  |  |  | 
TFA.H-Phe-Gln-Val-Val-Cys(NpyS)-Gly-NH2 (H-FQVVC(Npys)G-NH2; also: TFA salt) [Example 1] | 4.1 | - | - | - | - | - | + | + |  | did not raise | did not inhibit | did not inhibit | did not inhibit | no effect | did not inhibit | completely inhibited
